Columns and labels:
PI3Kβ = target: T1, PI3Kβ (Homo sapiens, UniProt P42338); assay: ADP-Glo in vitro lipid kinase assay, PI3Kβ; assay type: biochemical
T1 construct: Full-length p110β/p85α and p110δ/p85α were cloned and expressed in a similar manner; Strep-tag followed by TEV protease site (N, cleaved yes); made in house; host or cells: Spodoptera frugiperda Sf9 (plasmids OP832 and OP809)
Procedure: The effect of 1938 on the in vitro lipid kinase activity of p85α in complex with p110α, p110β or p110δ (further referred to as PI3Kα, PI3Kβ and PI3Kδ) was tested. As a positive control, a bis-phosphorylated phosphopeptide (a PDGF-receptor-derived peptide phosphorylated on Tyr-740 and Tyr-751, hereafter referred to as pY peptide) was used to mimic engagement of the p85α SH2 domains with tyrosine-phosphorylated peptides in membrane-bound receptors and adaptor proteins, known to activate the PI3Kα complex.
Kinase reactions were performed with ADP-Glo kinase assay kit (Promega Corporation). The enzyme, substrate and compounds were diluted in reaction buffer (20 mM HEPES, 50 mM NaCl, 50 mM KCl, 3 mM MgCl2, 1 mM EGTA, 1 mM TCEP, pH 7.4). Final concentrations of PI3Kα and PI3Kδ used were 25 nM and 50 nM for PI3Kβ. […]
For compound profiling, the reaction mixture contained 2 μl PI3K enzyme, 2 μl compound and/or pY and 2 μl of liposome substrate mixed with ATP. […] Luminescence was read using a Sense (Hidex) plate reader. […]
For characterisation of the effects of 1938 on in vitro PI3K enzymology, all reactions were performed at room temperature with 384 white-polystyrene plates (Corning #3574). […] For enzyme kinetic calculations, data was expressed as velocity (pmol of ADP generated/sec). […]

[1] = tested on: PI3Kα-WT and PI3Kα-KO MEFs; assay: CellTiter-Glo ATP content in MEFs; assay type: cell-based, mouse
Procedure: A role for PI3Kα in activation of anabolic metabolism, cell cycle progression and cell proliferation is well-established.
MEFs were seeded at 5000 cells per well in 96-well plates in DMEM supplemented with 10% FBS and 1% P/S, and allowed to attach overnight. The next day, cells were serum starved for 4 h prior to compound treatment in fresh serum-free DMEM. Compounds solubilised in DMSO were diluted 1:2 in a 12-point concentration response curve in DMSO. Intermediate plates were prepared by transferring 4 μl of compounds in DMSO into 96 μl of serum-free DMEM media. This was then used to treat cell plates by transferring 12.5 μl of solution from the intermediate plate into 87.5 μl of serum-free DMEM in the cell plates. […] Cell plates were incubated for 24 h, 48 h or 72 h at 37° C., 5% CO2, followed by determination of cell survival using the CellTiter-Glo® reagent according to manufacturer's instructions (Promega #G7571). Endpoint luminescence was measured using CLARIOstar (BMG). Compound data were analyzed using GraphPad Prism 8.

E545K mutant of p110α = target: T2, E545K mutant of p110α (Homo sapiens, UniProt P42336, E545K); assay: ADP-Glo kinase assay, oncogenic mutant E545K; assay type: biochemical; conditions: mutant insensitive to pY
T2 construct: Full-length p110α was expressed in a complex with full-length p85α (for biochemistry and HDX-MS); 6xHis followed by TEV protease site (N); made in house; host or cells: Spodoptera frugiperda Sf9 (plasmid OP663)
Procedure: Co-stimulation of 1938 with pY led to an additive activatory effect for G106V, but not for the N345K and E545K mutants (FIG. 1f/FIG. 22f).
Kinase reactions were performed with ADP-Glo kinase assay kit (Promega Corporation). The enzyme, substrate and compounds were diluted in reaction buffer (20 mM HEPES, 50 mM NaCl, 50 mM KCl, 3 mM MgCl2, 1 mM EGTA, 1 mM TCEP, pH 7.4). Final concentrations of PI3Kα and PI3Kδ used were 25 nM and 50 nM for PI3Kβ. Liposomes (5% brain PI(4,5)P2, 20% brain phosphatidylserine, 45% brain phosphatidylethanolamine, 15% brain phosphatidylcholine, 10% cholesterol, 5% sphingomyelin (Avanti Polar Lipids)) were used at a final concentration of 1 mg/ml. The pY sequence is ESDGG(pY)[…](pY)[…].
For characterisation of the effects of 1938 on in vitro PI3K enzymology, all reactions were performed at room temperature with 384 white-polystyrene plates (Corning #3574). The final DMSO concentration in the assay was between 0.5%-1.8%. The reaction mixture contained 2 μl PI3K enzyme, 2 μl compound and/or pY and 2 μl of liposome substrate mixed with ATP. ATP was used at a final concentration of 200 μM, unless otherwise stated. The enzyme and compounds were pre-incubated for 10 min prior to addition of substrate. […] For enzyme kinetic calculations, data was expressed as velocity (pmol of ADP generated/sec). […]

[2] = tested on: exposed rat sciatic nerves; assay: pAKT induction in exposed rat sciatic nerves; assay type: in vivo; conditions: direct injection or bathing, 5 μM
Procedure: Stimulated by these observations, we next tested 1938 in the sciatic nerve crush model in the rat, an in vivo model of peripheral nerve injury and regeneration. […] Immediately after the nerve crush (FIG. 5e, i-ii), 1938 was delivered via a single intraneural injection into the proximal crush site (FIG. 5e, iii) and via a minipump implanted adjacent to the nerve (FIG. 5e, iv), loaded with 1938 solution, for continuous delivery for the duration of the experiment. Analyses were conducted 3 weeks after injury.
Test experiment to assess if 1938 could induce pAkt generation in exposed rat sciatic nerves, adult male Sprague Dawley rats (>250 g; n=2) were anaesthetised using isoflurane, the left leg sciatic nerve was exposed and injected with 2 μl vehicle (sterile dH2O) or 1938 (5 μM in sterile dH2O). Meanwhile the sciatic nerve of the right leg was exposed and bathed in 250 μl of vehicle (sterile dH2O) or 1938 (5 μM in sterile dH2O). Each animal received one vehicle and one compound treatment. The treatments were left on for 30 min prior to washing the bathed nerves with sterile PBS and culling via sodium pentobarbital injection according to local regulations, the animal by schedule 1. Nerves were then harvested, washed in fresh 4° C. PBS and stored in a fresh vial before snap freezing in liquid nitrogen. […]

T2 sequence (P42336 whole entry E545K): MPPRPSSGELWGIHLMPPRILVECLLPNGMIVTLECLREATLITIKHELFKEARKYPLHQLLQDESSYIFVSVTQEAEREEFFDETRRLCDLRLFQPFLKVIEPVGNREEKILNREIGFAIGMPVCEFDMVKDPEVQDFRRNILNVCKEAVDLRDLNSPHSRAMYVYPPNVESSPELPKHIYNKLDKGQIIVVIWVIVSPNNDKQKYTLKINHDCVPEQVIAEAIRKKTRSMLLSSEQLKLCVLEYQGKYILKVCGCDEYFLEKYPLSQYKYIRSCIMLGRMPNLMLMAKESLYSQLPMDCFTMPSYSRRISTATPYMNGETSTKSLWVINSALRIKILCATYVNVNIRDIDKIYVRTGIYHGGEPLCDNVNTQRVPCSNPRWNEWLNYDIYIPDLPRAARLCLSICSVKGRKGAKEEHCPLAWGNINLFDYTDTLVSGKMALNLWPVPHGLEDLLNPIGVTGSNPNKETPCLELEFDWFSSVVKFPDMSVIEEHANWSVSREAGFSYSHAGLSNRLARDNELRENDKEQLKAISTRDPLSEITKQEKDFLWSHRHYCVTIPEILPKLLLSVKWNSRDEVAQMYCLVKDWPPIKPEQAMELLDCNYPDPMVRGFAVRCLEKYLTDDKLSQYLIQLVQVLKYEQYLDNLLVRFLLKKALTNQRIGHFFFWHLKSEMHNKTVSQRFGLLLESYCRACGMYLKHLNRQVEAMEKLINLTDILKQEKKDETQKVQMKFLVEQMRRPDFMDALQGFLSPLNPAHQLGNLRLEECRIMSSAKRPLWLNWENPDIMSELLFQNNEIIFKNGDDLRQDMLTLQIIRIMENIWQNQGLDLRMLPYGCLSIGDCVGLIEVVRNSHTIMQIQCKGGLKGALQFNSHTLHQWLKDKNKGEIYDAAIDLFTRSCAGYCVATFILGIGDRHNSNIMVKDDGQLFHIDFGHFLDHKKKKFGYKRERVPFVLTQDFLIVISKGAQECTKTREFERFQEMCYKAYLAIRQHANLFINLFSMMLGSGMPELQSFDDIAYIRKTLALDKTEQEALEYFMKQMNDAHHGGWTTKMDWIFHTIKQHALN
T2 sequence (P27986 whole entry partner): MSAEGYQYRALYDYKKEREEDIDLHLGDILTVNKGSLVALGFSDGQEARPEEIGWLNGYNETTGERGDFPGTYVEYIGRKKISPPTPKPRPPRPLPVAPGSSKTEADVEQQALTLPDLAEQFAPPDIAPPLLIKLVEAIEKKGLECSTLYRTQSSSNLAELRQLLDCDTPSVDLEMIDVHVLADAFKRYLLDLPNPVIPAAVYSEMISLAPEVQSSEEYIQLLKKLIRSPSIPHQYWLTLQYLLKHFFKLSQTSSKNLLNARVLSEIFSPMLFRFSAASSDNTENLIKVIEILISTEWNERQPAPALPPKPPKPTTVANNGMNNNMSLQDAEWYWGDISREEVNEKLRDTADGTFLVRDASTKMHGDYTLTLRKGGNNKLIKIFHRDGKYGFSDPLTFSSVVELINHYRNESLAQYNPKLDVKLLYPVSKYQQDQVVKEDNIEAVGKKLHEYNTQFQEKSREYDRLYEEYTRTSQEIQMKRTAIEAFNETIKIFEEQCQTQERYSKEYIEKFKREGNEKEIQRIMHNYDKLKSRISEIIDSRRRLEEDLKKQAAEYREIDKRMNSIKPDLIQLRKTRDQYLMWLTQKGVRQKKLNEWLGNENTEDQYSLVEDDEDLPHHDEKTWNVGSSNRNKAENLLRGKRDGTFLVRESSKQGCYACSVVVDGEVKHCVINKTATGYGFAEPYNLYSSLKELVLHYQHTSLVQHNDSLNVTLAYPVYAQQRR
T1 sequence (P42338 whole entry, species assumed): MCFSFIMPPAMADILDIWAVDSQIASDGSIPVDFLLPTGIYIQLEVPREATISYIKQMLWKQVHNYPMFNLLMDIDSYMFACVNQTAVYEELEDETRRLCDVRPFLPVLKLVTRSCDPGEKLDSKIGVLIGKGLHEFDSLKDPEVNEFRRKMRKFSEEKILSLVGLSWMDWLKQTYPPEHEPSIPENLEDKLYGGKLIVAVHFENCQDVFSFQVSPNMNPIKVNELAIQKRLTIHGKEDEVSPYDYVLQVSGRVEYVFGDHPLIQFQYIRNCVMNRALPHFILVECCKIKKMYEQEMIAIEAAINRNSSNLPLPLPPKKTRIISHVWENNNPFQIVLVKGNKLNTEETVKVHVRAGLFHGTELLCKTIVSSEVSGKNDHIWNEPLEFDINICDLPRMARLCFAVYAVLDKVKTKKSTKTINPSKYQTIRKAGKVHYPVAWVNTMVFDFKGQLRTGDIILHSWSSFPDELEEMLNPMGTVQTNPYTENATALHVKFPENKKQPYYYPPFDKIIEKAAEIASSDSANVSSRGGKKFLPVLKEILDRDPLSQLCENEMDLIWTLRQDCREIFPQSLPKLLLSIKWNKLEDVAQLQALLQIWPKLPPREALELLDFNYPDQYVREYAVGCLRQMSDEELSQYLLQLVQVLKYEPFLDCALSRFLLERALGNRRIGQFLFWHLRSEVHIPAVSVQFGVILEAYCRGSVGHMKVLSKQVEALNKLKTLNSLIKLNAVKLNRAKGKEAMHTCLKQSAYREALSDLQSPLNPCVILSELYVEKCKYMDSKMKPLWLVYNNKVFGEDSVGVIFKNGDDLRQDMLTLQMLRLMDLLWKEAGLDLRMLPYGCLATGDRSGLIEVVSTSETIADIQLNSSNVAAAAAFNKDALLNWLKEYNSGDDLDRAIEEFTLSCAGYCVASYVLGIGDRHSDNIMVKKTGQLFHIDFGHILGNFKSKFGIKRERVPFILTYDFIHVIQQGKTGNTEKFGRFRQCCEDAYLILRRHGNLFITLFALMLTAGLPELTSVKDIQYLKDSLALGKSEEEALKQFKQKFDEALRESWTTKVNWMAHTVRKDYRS
T1 sequence (P27986 whole entry partner, species assumed): as the sequence (P27986 whole entry partner) above

Compound: CCN1CCN(c2ccc(Nc3cc(Nc4cccc5c4N(C(C)=O)CC5)ccn3)cc2)CC1 [Example 1938]
- effect on in vitro lipid kinase activity of PI3Kβ (PI3Kβ): not PI3Kβ
- concentrations that decreased ATP levels (PI3Kα-independent effects) ([1]; 24 h incubation, PI3Kα-WT and PI3Kα-KO MEFs): > 7.5 µM
- concentrations with non-PI3Kα-dependent effects ([1]; 48 h and 72 h incubation): ≥ 2 µM
- EC50 ([1]; Mus musculus, PI3Kα-WT MEFs, CellTiterGlo, read-out: EC50 of increase in metabolic activity (ATP content)): ~500 nM
- activation of E545K mutant (E545K mutant of p110α): further activated
- pAKT in sciatic nerve [2]: induction of pAKT

Reference: US20250263404A1, “AMINOPYRIDINES AS ACTIVATORS OF PI3 KINASE” (UCL Business Ltd, priority 2021, published 2025)
